51 compounds from patent US10851082B2, “Substituted aromatic n-heterocyclic compounds as inhibitors of mitogen-activated protein kinase interacting kinase 1 (MNK1) and 2 (MNK2)” (Northwestern University, priority 2015, dated 2020) can be followed below.

For orientation: pIC50 means the negative decadic logarithm of the IC50, by convention in mol/L.

pIC50: −log10 of the molar value. Read-outs that look alike come from different tables or passages of the source.

Assay [1] addresses Mnk2 (Homo sapiens (Human), UniProt Q9HBH9). Put plainly: Mnk2 kinase inhibition, ADP-Glo ADP monitoring assay. It is filed as biochemical. (ADP-Glo first removes unused ATP, then detects ADP through luciferase.)
Experimental: (§1) The synthesized compounds then were tested for inhibition of the kinase activity (IC50) of Mnk1 and/or Mnk2 using the ADP monitoring assay for kinases described in Zegzouti, H.; Zdanovskaia, M.; Hsiao, K.; Goueli, S. A., ADP-Glo: A Bioluminescent and homogeneous ADP monitoring assay for kinases.
The target of assay [2] is Mnk1 (Homo sapiens (Human), UniProt Q9BUB5). The experiment in a line: Mnk1 kinase inhibition, ADP-Glo ADP monitoring assay. It is filed as biochemical.
Experimental: as §1
[3] abbreviates: ADP-Glo kinase assay, unit inferred, read-out: Mnk2 IC50.
The mark [4] stands for this setting: unit inferred, read-out: Mnk1 IC50.
The mark [5] stands for this setting: ADP-Glo kinase assay, read-out: Mnk2 inhibition IC50 (+,++,+++).
Setting [6] is: read-out: Mnk1 inhibition IC50 (+,++,+++).
The mark [7] stands for this setting: ADP-Glo kinase assay, read-out: Mnk2 IC50.

Sequence of Mnk1 (Q9BUB5 whole entry): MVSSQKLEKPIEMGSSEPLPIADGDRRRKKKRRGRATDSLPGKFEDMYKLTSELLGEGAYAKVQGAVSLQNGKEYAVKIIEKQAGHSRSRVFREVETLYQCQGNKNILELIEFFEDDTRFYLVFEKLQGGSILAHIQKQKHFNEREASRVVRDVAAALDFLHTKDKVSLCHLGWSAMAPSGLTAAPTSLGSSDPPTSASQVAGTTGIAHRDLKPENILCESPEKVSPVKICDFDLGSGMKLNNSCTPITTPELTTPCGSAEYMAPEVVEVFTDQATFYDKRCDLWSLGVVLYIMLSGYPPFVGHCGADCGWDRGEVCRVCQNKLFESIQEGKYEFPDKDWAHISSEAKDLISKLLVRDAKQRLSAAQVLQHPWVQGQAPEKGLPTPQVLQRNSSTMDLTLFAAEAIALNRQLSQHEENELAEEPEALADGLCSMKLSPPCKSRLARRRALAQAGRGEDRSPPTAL
Sequence of Mnk2 (Q9HBH9 whole entry): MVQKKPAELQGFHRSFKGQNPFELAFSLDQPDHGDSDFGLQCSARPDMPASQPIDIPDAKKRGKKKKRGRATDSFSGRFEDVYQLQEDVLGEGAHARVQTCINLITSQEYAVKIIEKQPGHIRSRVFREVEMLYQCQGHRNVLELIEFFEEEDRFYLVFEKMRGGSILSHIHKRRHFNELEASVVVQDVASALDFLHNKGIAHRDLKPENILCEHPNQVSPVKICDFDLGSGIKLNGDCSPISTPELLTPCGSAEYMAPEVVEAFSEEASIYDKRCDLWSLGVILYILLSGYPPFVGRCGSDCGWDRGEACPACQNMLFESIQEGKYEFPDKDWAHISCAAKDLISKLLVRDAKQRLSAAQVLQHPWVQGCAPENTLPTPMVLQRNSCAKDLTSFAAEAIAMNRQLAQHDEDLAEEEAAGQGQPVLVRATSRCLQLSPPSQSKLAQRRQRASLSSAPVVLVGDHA

In the case of `c1ccc2c(c1)ncn2-c1ccnc(NCCc2c[nH]c3ccccc23)n1` [NUCC-0196260], the pIC50 is 7.05 in assay [1] (setting [3]) and 6.30 in assay [2] (setting [4]).

Take `Clc1cnc(OC2CCOCC2)nc1-n1cnc2ccccc21` [NUCC-0200804]: the pIC50 in assay [1] (setting [5]) and in assay [2] (setting [6]) was over 6.00 throughout.

For `COc1cccc(-c2cn(-c3ccnc(NCCc4c[nH]cn4)n3)c3ccccc23)c1` [NUCC-0125599], the pIC50 was 5.21 in assay [1] (setting [7]) and 4.54 in assay [2] (read-out: Mnk1 IC50).

In the case of `Clc1cnc(NCCc2ccncc2)nc1-n1nnc2ccccc21` [NUCC-0200801], the results for the pIC50 in assay [1] and in assay [2] (setting [6]) were 5.00 to 6.00 and under 5.00, respectively.

Turning to `N#Cc1cn(-c2nc(OC3CC(N)C3)ncc2Cl)cn1` (stereo not drawn) [NUCC-0201246], the pIC50 in assay [1] and in assay [2] (setting [6]) was 5.00 to 6.00 throughout.

As to `Oc1cnc(NCCc2ccncc2)nc1-n1cnc2ccccc21` [NUCC-0196263], the pIC50 in assay [1] (setting [3]) and in assay [2] (setting [4]) was under 5.00 throughout.

As to `c1ccc2c(c1)ncn2-c1ccnc(Nc2ccc(N3CCCCC3)cc2)n1` [NUCC-0125588], in assay [2] (read-out: Mnk1 IC50), the pIC50 is 6.70.

For the compound `O=[N+](O)c1ccc2c(c1)ncn2-c1nc(NCCc2ccncc2)ncc1Cl` [NUCC-0200798], the values for the pIC50 in assay [1] and in assay [2] (setting [6]) were 5.00 to 6.00 and under 5.00, respectively.

With `c1ccc2c(c1)ccn2-c1ccnc(NCCc2cnc[nH]2)n1` [NUCC-0060955], the pIC50 in assay [1] (setting [7]) is 5.30; in assay [2] (read-out: Mnk1 IC50), 4.80.

Regarding `N#Cc1cnc(-n2cnc3ccccc32)nc1NCCCc1ccncc1` [NUCC-0200914], in assay [1] (setting [5]), the negative-log IC50 (pIC50) was over 6.00.

On to `Clc1cnc(OC2CCC2)nc1-n1cnc2ccccc21` [NUCC-0201048], for which the pIC50 in assay [1] (setting [5]) and in assay [2] (setting [6]) was over 6.00 in each case.

Regarding `COc1ccc2c(c1)ncn2-c1nc(NCCc2ccncc2)ncc1Cl` [NUCC-0200910], the pIC50 in assay [1] (setting [5]) is over 6.00; in assay [2] (setting [6]), under 5.00.

As for `CCOC(=O)c1cnc(NC2CNC(=O)C2)nc1-n1cnc2ccccc21` (stereo not drawn) [NUCC-0201889], the pIC50 in assay [1] and in assay [2] (setting [6]) was 5.00 to 6.00 each time.

In the case of `O=c1c2ccccc2nnn1-c1ccnc(NCCc2ccncc2)n1` [NUCC-0176350], in assay [1] (ADP-Glo kinase assay), the “Mnk2 IC50” value is given as “no activity”. In assay [2], the “Mnk1 IC50” value is “no activity”.

For the compound `c1ccc2c(c1)ncn2-c1cc(NCCc2ccncc2)cnn1` [NUCC-0176338], the “Mnk2 IC50” value in assay [1] (ADP-Glo kinase assay) is given as “no activity”. For the same compound, the “Mnk1 IC50” value in assay [2] is listed as “no activity”.

As to `N#Cc1cnc(Oc2cccnc2)nc1-n1cnc2ccccc21` [NUCC-0200794], the pIC50 was over 6.00 in assay [1] (setting [5]) and 5.00 to 6.00 in assay [2] (setting [6]).

For `Clc1cnc(NC2CCN(c3nccn4ccnc34)C2)nc1-n1cnc2ccccc21` (stereo not drawn) [NUCC-0201015], the pIC50 in assay [1] and in assay [2] (setting [6]) was 5.00 to 6.00 each time.

For `Fc1ccc2c(ncn2-c2nc(NCCc3ccncc3)ncc2Cl)c1F` [NUCC-0200800], the “Mnk2 inhibition IC50 (+,++,+++)” value in assay [1] (ADP-Glo kinase assay) is “no activity”. For the same compound, in assay [2], the “Mnk1 inhibition IC50 (+,++,+++)” value is on record as “no activity”.

As to `O=c1oc2ccccc2n1-c1ccnc(NCCc2ccncc2)n1` [NUCC-0176353], the pIC50 is 5.17 in assay [1] (setting [7]) and 5.02 in assay [2] (read-out: Mnk1 IC50).

With `c1ccc2c(c1)ncn2-c1ccnc(NCc2ccncc2)n1` [NUCC-0125586], the pIC50 in assay [2] (read-out: Mnk1 IC50) is 6.30.

As for `N#Cc1ccc(CCNc2ncc(Cl)c(-n3cnc4ccccc43)n2)cc1` [NUCC-0200785], the pIC50 was over 6.00 in assay [1] (setting [5]) and under 5.00 in assay [2] (setting [6]).

For `O=C1NCCCCC1Nc1ccnc(-n2cnc3ccccc32)n1` (stereo not drawn) [NUCC-0176368], the pIC50 in assay [1] (setting [7]) was 5.28; in assay [2] (read-out: Mnk1 IC50), 4.96.

In the case of `O[C@@H](c1ccccc1)[C@H](Nc1ccnc(-n2cnc3ccccc32)n1)c1ccccc1` [NUCC-0196258], the pIC50 in assay [1] (setting [3]) was 5.15; in assay [2] (setting [4]), under 5.00.

Regarding `Clc1cccc(CCOc2ncc(Cl)c(-n3cnc4ccccc43)n2)n1` [NUCC-0201021], the pIC50 in assay [1] (setting [5]) and in assay [2] (setting [6]) was over 6.00 in each case.

`OC1CCN(c2ncc(Cl)c(-n3cnc4ccccc43)n2)CC1` [NUCC-0200781]: the pIC50 in assay [1] (setting [5]) was over 6.00.

Take `Clc1cccc(-n2cc(-c3ccnc(NCc4ccncc4)n3)cn2)c1` [NUCC-0054134]: in assay [2] (read-out: Mnk1 IC50), the pIC50 was 5.22.

In the case of `COc1cccc(-n2cc(-c3ccnc(NCCN4CCOCC4)n3)cn2)c1` [NUCC-0054138], the pIC50 in assay [2] (read-out: Mnk1 IC50) is 4.92.

As to `c1cc(CCNc2nccc(-c3cnn(CCN4CCOCC4)c3)n2)ccn1` [NUCC-0060970], the pIC50 in assay [2] (read-out: Mnk1 IC50) was 4.15.

`c1cc(CNc2nccc(-c3cnn(C4CCOCC4)c3)n2)ccn1` [NUCC-0060959]: the pIC50 in assay [2] (read-out: Mnk1 IC50) was 4.05.

In the case of `COc1cccc(-n2cc(-c3ccnc(NCc4ccccc4)n3)cn2)c1` [NUCC-0077155], the pIC50 in assay [2] (read-out: Mnk1 IC50) is 4.68.

As for `CN1CCN(c2ccc(Nc3nccc(-n4cnc5ccccc54)n3)cc2)CC1` [NUCC-0125587], in assay [2] (read-out: Mnk1 IC50), the pIC50 is 6.30.

Turning to `Cn1cc(-c2ccnc(NCc3ccc(F)cc3)n2)cn1` [NUCC-0060897], the pIC50 in assay [2] (read-out: Mnk1 IC50) was 5.05.

For the compound `c1ccc(Cn2cc(-c3ccnc(NCCc4c[nH]cn4)n3)cn2)cc1` [NUCC-0060971], the pIC50 in assay [2] (read-out: Mnk1 IC50) is 4.72.

As for `COc1cccc(-n2cc(-c3ccnc(NCc4ccncc4)n3)cn2)c1` [NUCC-0077163], the pIC50 in assay [2] (read-out: Mnk1 IC50) is 5.10.

On to `c1ccc2c(c1)ncn2-c1ccnc(NCCN2CCOCC2)n1` [NUCC-0060956], for which the pIC50 in assay [2] (read-out: Mnk1 IC50) was 6.00.

As to `c1ccc2c(c1)ncn2-c1ccnc(N[C@@H]2CCOC2)n1` [NUCC-0176149], in assay [1] (setting [7]), the negative logarithm of the IC50 (pIC50) was 7.03.

`CCNc1nccc(-c2cnn(-c3cccc(OC)c3)c2)n1` [NUCC-0054132]: the pIC50 in assay [2] (read-out: Mnk1 IC50) was 5.05.

Turning to `COc1cccc(-n2cc(-c3ccnc(NCCN(C)C)n3)cn2)c1` [NUCC-0077166], the pIC50 in assay [2] (read-out: Mnk1 IC50) is 5.40.

As for `COc1cccc(-n2cc(-c3ccnc(NC4CCNCC4)n3)cn2)c1` [NUCC-0077164], the pIC50 in assay [2] (read-out: Mnk1 IC50) is 5.22.

In the case of `Cn1cc(-c2ccnc(NCCCN3CCCCC3)n2)cn1` [NUCC-0060895], in assay [2] (read-out: Mnk1 IC50), the pIC50 is 5.30.

For the compound `c1ccc2c(c1)ccn2-c1ccnc(NCCN2CCOCC2)n1` [NUCC-0060953], the pIC50 in assay [2] (read-out: Mnk1 IC50) was 5.05.

On to `O=C(c1ccc(Nc2nccc(-n3cnc4ccccc43)n2)cc1)N1CCNCC1` [NUCC-0125597], for which, in assay [2] (read-out: Mnk1 IC50), the pIC50 is 5.22.

Consider `NC1CC(Oc2ncc(-c3ccccc3OC(F)(F)F)c(-n3cnc4ccccc43)n2)C1` (stereo not drawn) [NUCC-0201898, 3-((4-(1H-benzo[d]imidazol-1-yl)-5-(2-(trifluoromethoxy)phenyl)pyrimidin-2-yl)oxy)cyclobutan-1-amine], for which the pIC50 in assay [1] (setting [5]) is over 6.00.

For `c1ccc2c(c1)ncn2-c1ccnc(NC2CCNCC2)n1` [NUCC-0125584], the negative logarithm of the IC50 (pIC50) in assay [2] (read-out: Mnk1 IC50) was 5.85.

In the case of `COc1cccc(-n2cc(-c3ccnc(Nc4ccncc4)n3)cn2)c1` [NUCC-0077168], the pIC50 in assay [2] (read-out: Mnk1 IC50) is 4.72.

As for `COc1cccc(-n2cc(-c3ccnc(NCCCN4CCOCC4)n3)cn2)c1` [NUCC-0077154, 4-(1-(3-methoxyphenyl)-1H-pyrazol-4-yl)-N-(3-morpholinopropyl)pyrimidin-2-amine], the pIC50 in assay [2] (read-out: Mnk1 IC50) is 4.55.

As for `c1ccc(-n2cc(-c3ccnc(NCCc4c[nH]cn4)n3)cn2)cc1` [NUCC-0060965], the pIC50 in assay [2] (read-out: Mnk1 IC50) is 4.52.

Regarding `COc1cccc(-n2cc(-c3ccnc(NC4CCOC4)n3)cn2)c1` (stereo not drawn) [NUCC-0077165], the pIC50 in assay [2] (read-out: Mnk1 IC50) is 5.22.

As to `Brc1cnc(NCCc2ccncc2)nc1-n1ccnc1` [NUCC-0196229], the pIC50 in assay [1] (setting [3]) is 5.92.

Consider `Cn1cc(-c2ccnc(NCCN3CCOCC3)n2)cn1` [NUCC-0060894], for which the pIC50 in assay [2] (read-out: Mnk1 IC50) is 5.40.

With `COc1cccc(-n2cc(-c3ccnc(NC4CCOCC4)n3)cn2)c1` [NUCC-0125591], the pIC50 in assay [2] (read-out: Mnk1 IC50) was 4.68.
